In patent publication US20240383915A1, “OXAZEPINE COMPOUNDS AND USES THEREOF IN THE TREATMENT OF CANCER” (Genentech, Inc., priority 2021, published 2024):

Columns and labels:
KRas = KRas (Homo sapiens (Human), UniProt P01116); experiment: KRas GDP HTRF (BODIPY-GDP exchange TR-FRET); format: biochemical
Protocol: KRAS Biochemical Assay—BODIPY-GDP Exchange TR-FRET. Biochemical compound potencies were assessed by evaluating inhibition of SOS1-mediated nucleotide exchange in KRAS G12D. The SOS1-promoted exchange of fluorescently-labeled GDP (BODIPY-GDP) was monitored by time-resolved fluorescence resonance energy transfer (TR-FRET). Compounds solubilized in DMSO were dispensed as concentration series into 384-well white assay plates. […] The reaction was initiated with the addition of 5 μL of 3 nM recombinant human SOS1 and 300 nM BODIPY-GDP in assay buffer. After a 60-minute incubation, the fluorescence was measured with excitation at 337 nm and emission at 490 and 520 nm. The TR-FRET ratio was determined as the fluorescence at 520 nm divided by the fluorescence at 490 nm multiplied by 10,000. […] The normalized TR-FRET results were plotted against compound concentration, and the data fit to a 4-parameter Hill equation to determine the IC50 values.

KRas(G12V) = KRas(G12V) (Homo sapiens (Human), UniProt P01116, G12V); experiment: KRas(G12V) GDP HTRF (BODIPY-GDP exchange TR-FRET); format: biochemical
Sequence of KRas(G12V) (P01116-2 other isoform, or with tags, fused parts or gaps G12V): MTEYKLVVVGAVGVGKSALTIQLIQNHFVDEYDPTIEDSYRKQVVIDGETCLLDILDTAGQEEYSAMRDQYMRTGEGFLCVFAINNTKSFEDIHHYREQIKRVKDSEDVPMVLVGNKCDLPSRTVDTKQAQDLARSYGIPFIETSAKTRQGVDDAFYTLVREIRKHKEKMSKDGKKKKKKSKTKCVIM

Sequence of KRas (P01116-2 other isoform, or with tags, fused parts or gaps): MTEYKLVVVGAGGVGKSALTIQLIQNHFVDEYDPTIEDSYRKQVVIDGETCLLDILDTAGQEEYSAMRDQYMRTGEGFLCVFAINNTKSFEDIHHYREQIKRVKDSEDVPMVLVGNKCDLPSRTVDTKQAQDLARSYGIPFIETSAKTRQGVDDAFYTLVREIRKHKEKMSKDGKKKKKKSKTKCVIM

Row | Compound | IC50 (KRas) | IC50 (KRas(G12V))
1 | Cc1cc(N)nc(-c2c(Cl)c3c4c(nc(OC[C@@]56CCCN5CC(F)(F)C6)nc4c2F)N([C@H](C)c2nccnc2N)CCO3)c1C(F)(F)F (atropisomer, axis not shown) [Example 165b, 3-((R)-1-((S)-9-(6-amino-4-methyl-3-(trifluoromethyl)pyridin-2-yl)-8-chloro-2-(((S)-2,2-difluorotetrahydro-1H-pyrrolizin-7a(5H)-yl)methoxy)-10-fluoro-5,6-dihydro-4H-[1,4]oxazepino[5,6,7-de]quinazolin-4-yl)ethyl)pyrazin-2-amine] | 2000 nM | 890 nM
2 | Cc1cc(N)nc(-c2c(Cl)c3c4c(nc(OC[C@]56CCCN5CC(F)(F)C6)nc4c2F)N([C@H](C)c2nccnc2N)CCO3)c1C(F)(F)F (atropisomer, axis not shown) [Example 166a, 3-((R)-1-((R)-9-(6-amino-4-methyl-3-(trifluoromethyl)pyridin-2-yl)-8-chloro-2-(((R)-2,2-difluorotetrahydro-1H-pyrrolizin-7a(5H)-yl)methoxy)-10-fluoro-5,6-dihydro-4H-[1,4]oxazepino[5,6,7-de]quinazolin-4-yl)ethyl)pyrazin-2-amine] | 2.06 nM | 0.56 nM
3 | Cc1cc(N)nc(-c2c(Cl)c3c4c(nc(OC[C@@H]5C[C@@]6(CN5C)CC6(F)F)nc4c2F)N([C@H](C)c2nccnc2N)CCO3)c1C(F)(F)F (atropisomer, axis not shown) [Example 171b, 3-((R)-1-((S)-9-(6-amino-4-methyl-3-(trifluoromethyl)pyridin-2-yl)-8-chloro-2-(((3S,6S)-1,1-difluoro-5-methyl-5-azaspiro[2.4]heptan-6-yl)methoxy)-10-fluoro-5,6-dihydro-4H-[1,4]oxazepino[5,6,7-de]quinazolin-4-yl)ethyl)pyrazin-2-amine] | 2090 nM | 900 nM
4 | Cc1cc(N)nc(-c2c(Cl)c3c4c(nc(OC[C@H]5CC[C@@H]6CO[C@@H](C)CN56)nc4c2F)N([C@H](C)c2cccnc2N)CCO3)c1C(F)(F)F (atropisomer, axis not shown; (aR)) [Example 93b, 6-((R)-4-((R)-1-(2-aminopyridin-3-yl)ethyl)-8-chloro-10-fluoro-2-(((3S,6R,8aR)-3-methylhexahydro-1H-pyrrolo[2,1-c][1,4]oxazin-6-yl)methoxy)-5,6-dihydro-4H-[1,4]oxazepino[5,6,7-de]quinazolin-9-yl)-4-methyl-5-(trifluoromethyl)pyridin-2-amine] | 0.35 nM | 0.14 nM
5 | C[C@H](c1cccnc1N)N1CCOc2c(Cl)c(-c3cccc4sc(N)nc34)c(F)c3nc(OC[C@@]45CCCN4C[C@H](F)C5)nc1c23 (atropisomer, axis not shown; (aS)) [Example 100b, 4-((S)-4-((R)-1-(2-aminopyridin-3-yl)ethyl)-8-chloro-10-fluoro-2-(((2R,7aS)-2-fluorotetrahydro-1H-pyrrolizin-7a(5H)-yl)methoxy)-5,6-dihydro-4H-[1,4]oxazepino[5,6,7-de]quinazolin-9-yl)benzo[d]thiazol-2-amine] | 0.353 nM | 0.73 nM
6 | Cc1cc(N)nc(-c2c(Cl)c3c4c(nc(OC[C@@H]5CC[C@H]6COCCN65)nc4c2F)N([C@H](C)c2nccnc2N)CCO3)c1C(F)(F)F (atropisomer, axis not shown; (aS)) [Example 104b, 3-((R)-1-((S)-9-(6-amino-4-methyl-3-(trifluoromethyl)pyridin-2-yl)-8-chloro-10-fluoro-2-(((6S,8aS)-hexahydro-1H-pyrrolo[2,1-c][1,4]oxazin-6-yl)methoxy)-5,6-dihydro-4H-[1,4]oxazepino[5,6,7-de]quinazolin-4-yl)ethyl)pyrazin-2-amine] | 35.2 nM | 16 nM
7 | Cc1cc(N)nc(-c2c(Cl)c3c4c(nc(OC[C@@H]5CC[C@H]6CN(CC(F)(F)F)CCN56)nc4c2F)N([C@H](C)c2cccnc2N)CCO3)c1C(F)(F)F (atropisomer, axis not shown; (aS)) [Example 129a, 6-((R)-4-((R)-1-(2-aminopyridin-3-yl)ethyl)-8-chloro-10-fluoro-2-(((6S,8aS)-2-(2,2,2-trifluoroethyl)octahydropyrrolo[1,2-a]pyrazin-6-yl)methoxy)-5,6-dihydro-4H-[1,4]oxazepino[5,6,7-de]quinazolin-9-yl)-4-methyl-5-(trifluoromethyl)pyridin-2-amine] | 0.232 nM | 0.31 nM

The remaining molecules from weak to strong by IC50 (KRas), led by results:

Row | IC50 (KRas) | IC50 (KRas(G12V)) | Compound
8 | 1730 nM | 640 nM | Cc1cc(N)nc(-c2c(Cl)c3c4c(nc(OC[C@]56CCCN5CC(F)(F)C6)nc4c2F)N([C@H](C)c2nccnc2N)CCO3)c1C(F)(F)F (atropisomer, axis not shown) [Example 166b, 3-((R)-1-((S)-9-(6-amino-4-methyl-3-(trifluoromethyl)pyridin-2-yl)-8-chloro-2-(((R)-2,2-difluorotetrahydro-1H-pyrrolizin-7a(5H)-yl)methoxy)-10-fluoro-5,6-dihydro-4H-[1,4]oxazepino[5,6,7-de]quinazolin-4-yl)ethyl)pyrazin-2-amine]
9 | 680 nM | 97 nM | Cc1cc(N)nc(-c2c(Cl)c3c4c(nc(OC[C@@H]5CCCN5CC(F)F)nc4c2F)N([C@H](C)c2nccnc2N)CCO3)c1C(F)(F)F (atropisomer, axis not shown) [Example 158b, 3-((R)-1-((S)-9-(6-amino-4-methyl-3-(trifluoromethyl)pyridin-2-yl)-8-chloro-2-(((S)-1-(2,2-difluoroethyl)pyrrolidin-2-yl)methoxy)-10-fluoro-5,6-dihydro-4H-[1,4]oxazepino[5,6,7-de]quinazolin-4-yl)ethyl)pyrazin-2-amine]
10 | 2.2 nM | 0.7 nM | Cc1cc(N)nc(-c2c(Cl)c3c4c(nc(OC[C@@H]5C[C@@]6(CN5C)CC6(F)F)nc4c2F)N([C@H](C)c2nccnc2N)CCO3)c1C(F)(F)F (atropisomer, axis not shown) [Example 171a, 3-((R)-1-((R)-9-(6-amino-4-methyl-3-(trifluoromethyl)pyridin-2-yl)-8-chloro-2-(((3S,6S)-1,1-difluoro-5-methyl-5-azaspiro[2.4]heptan-6-yl)methoxy)-10-fluoro-5,6-dihydro-4H-[1,4]oxazepino[5,6,7-de]quinazolin-4-yl)ethyl)pyrazin-2-amine]
11 | 2.14 nM | 0.69 nM | Cc1cc(N)nc(-c2c(Cl)c3c4c(nc(OC[C@@]56CCCN5CC(F)(F)C6)nc4c2F)N([C@H](C)c2nccnc2N)CCO3)c1C(F)(F)F (atropisomer, axis not shown) [Example 165a, 3-((R)-1-((R)-9-(6-amino-4-methyl-3-(trifluoromethyl)pyridin-2-yl)-8-chloro-2-(((S)-2,2-difluorotetrahydro-1H-pyrrolizin-7a(5H)-yl)methoxy)-10-fluoro-5,6-dihydro-4H-[1,4]oxazepino[5,6,7-de]quinazolin-4-yl)ethyl)pyrazin-2-amine]
12 | 0.39 nM | 0.32 nM | Cc1cc(N)nc(-c2c(Cl)c3c4c(nc(OC[C@H]5CC[C@@H]6CN(CC(F)(F)F)CCN56)nc4c2F)N([C@H](C)c2cccnc2N)CCO3)c1C(F)(F)F (atropisomer, axis not shown; (aR)) [Example 129b, 6-((R)-4-((R)-1-(2-aminopyridin-3-yl)ethyl)-8-chloro-10-fluoro-2-(((6R,8aR)-2-(2,2,2-trifluoroethyl)octahydropyrrolo[1,2-a]pyrazin-6-yl)methoxy)-5,6-dihydro-4H-[1,4]oxazepino[5,6,7-de]quinazolin-9-yl)-4-methyl-5-(trifluoromethyl)pyridin-2-amine]
13 | 0.201 nM | 0.09 nM | Cc1cc(N)nc(-c2c(Cl)c3c4c(nc(OC[C@@H]5CC[C@H]6CO[C@@H](C)CN56)nc4c2F)N([C@H](C)c2cccnc2N)CCO3)c1C(F)(F)F (atropisomer, axis not shown; (aS)) [Example 93a, 6-((R)-4-((R)-1-(2-aminopyridin-3-yl)ethyl)-8-chloro-10-fluoro-2-(((3S,6S,8aS)-3-methylhexahydro-1H-pyrrolo[2,1-c][1,4]oxazin-6-yl)methoxy)-5,6-dihydro-4H-[1,4]oxazepino[5,6,7-de]quinazolin-9-yl)-4-methyl-5-(trifluoromethyl)pyridin-2-amine]
14 | 0.145 nM | 0.07 nM | Cc1cc(N)nc(-c2c(Cl)c3c4c(nc(OC[C@@H]5CC[C@H]6CO[C@H](C)CN56)nc4c2F)N([C@H](C)c2cccnc2N)CCO3)c1C(F)(F)F (atropisomer, axis not shown; (aS)) [Example 93c, 6-((R)-4-((R)-1-(2-aminopyridin-3-yl)ethyl)-8-chloro-10-fluoro-2-(((3R,6S,8aS)-3-methylhexahydro-1H-pyrrolo[2,1-c][1,4]oxazin-6-yl)methoxy)-5,6-dihydro-4H-[1,4]oxazepino[5,6,7-de]quinazolin-9-yl)-4-methyl-5-(trifluoromethyl)pyridin-2-amine]
15 | 0.03 nM | 0.03 nM | C[C@H](c1cccnc1N)N1CCOc2c(Cl)c(-c3cccc4sc(N)nc34)c(F)c3nc(OC[C@@]45CCCN4C[C@H](F)C5)nc1c23 (atropisomer, axis not shown; (aS)) [Example 100a, 4-((R)-4-((R)-1-(2-aminopyridin-3-yl)ethyl)-8-chloro-10-fluoro-2-(((2R,7aS)-2-fluorotetrahydro-1H-pyrrolizin-7a(5H)-yl)methoxy)-5,6-dihydro-4H-[1,4]oxazepino[5,6,7-de]quinazolin-9-yl)benzo[d]thiazol-2-amine]
